{"source": "patent US20140243415A1", "about": "“COMPOUNDS INHIBITING GALECTIN-1 EXPRESSION, CANCER CELL PROLIFERATION, INVASION, AND TUMORIGENESIS” (ONCOETHIX SA, priority 2011, published 2014)", "key": {"chk1, chk2, and cdc25C": {"system": "chk1, chk2, and cdc25C", "experiment": "chk1, chk2 and cdc25C phosphorylation in SQ20B", "assay_type": "cell-based, human", "settings": "OTX-008-treated SQ20B cells"}, "galectin-1": {"biological_target": "T1, galectin-1 (Homo sapiens, UniProt P09382)", "T1 construct": "Western Blot of galectin-1 on SQ20B cells treated with 3 μM OTX-008 for 24 h, 48 h and 72 h; endogenous in cells; host or cells: SQ20B (ATCC)", "T1 sequence (P09382 whole entry)": "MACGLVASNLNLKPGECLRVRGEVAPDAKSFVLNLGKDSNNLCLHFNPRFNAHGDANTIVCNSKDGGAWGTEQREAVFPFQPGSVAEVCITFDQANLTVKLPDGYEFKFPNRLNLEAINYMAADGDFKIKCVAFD", "experiment": "Immunofluorescence of galectin-1 in SQ20B cells", "assay_type": "cell-based", "method": "FIG. 3. Effects of OTX-008 on galectin-1 expression and localization. A—Western Blot of galectin-1 on SQ20B cells treated with 3 μM OTX-008 for 24 h, 48 h and 72 h. B and C—Immunofluorescence of galectin-1 on SQ20B cells treated with 3 μM OTX-008 for 24 and 48 h. B—OTX-008 treatment decreases galectin-1 immunostaining in SQ20B cells. C—Galectin-1 translocates into the nucleus after OTX-008 exposure. D—Western Blot of p-AKTser473, AKT, p-S6, p-ERK1/2, ERK and p-PKCα in SQ20B cells treated with 3 μM OTX-008 for 10 min, 1 h, 2 h, 5 h and 24 h.\nThe cells were grown on cover slips at 37° C. overnight. The growth media was then removed; the cells were washed with PBS and fixed in 4% of paraformaldhyde for 15 min and permeabilized with PBS/tritonX100 (1:500) then washed again with PBS. Incubation with primary antibodies was performed at 4° C. overnight (galectin-1, 1:100; Abcam, Cambridge, Mass., USA), followed by the incubation with the secondary antibodies (anti-mouse, 1:100; Cell Signaling, Saint Quentin Yvelines, France) for 1 h at room temperature in the dark. The nuclei were stained with Dapi 1:10000 (Santa Cruz Biotechnology, Santa Cruz, Calif., USA). The images were captured and analyzed with a Zeiss observer Z1 microscope. Images quantification was performed using Histolab Software (Microvision, France) subtracting the background. Magnification ×20 and ×40."}, "cdc2 (tyrosine 15)": {"system": "cdc2 (tyrosine 15)", "experiment": "Western blot of phosphorylated cdc2 in SQ20B", "assay_type": "cell-based, human", "settings": "3 μM OTX-008 for 72 h", "method": "Cells were lysed in buffer containing 50 mM HEPES (pH 7.6), 150 mM NaCl, 1% Triton X-100, 2 mM sodium vanadate, 100 mM NaF, and 0.4 mg/ml phenylmethylsulfonyl fluoride. Equal amounts of protein (30 μg/lane) were subjected to SDS-PAGE and transferred to nitrocellulose membranes. Membranes were blocked with 5% milk in 0.05% Tween 20/phosphate-buffered saline and then incubated with the primary antibody overnight. Membranes were then washed and incubated with the secondary antibody conjugated to horseradish peroxidase. Bands were visualized by using the enhanced chemiluminescence Western blotting detection system. Densitometric analysis was performed under conditions that yielded a linear response. The following antibodies were used: anti-p-cdc2 (tyr15), anti-p-wee1 (ser642), anti-p-p44/42 MAPK (thr202/tyr204), anti-p44/42, anti-p-AKT (ser473), anti-AKT, anti-p-S6 (ser235/236) (Cell Signaling, Saint Quentin Yvelines, France), anti-p-PKCα (ser657) (BD Biosciences, Le-Pont-de-Claix, France) and anti-galectin-1 (Abcam, Cambridge, Mass., USA). All antibodies were used at a 1:1000 dilution.\nTo study the mechanism of OTX-008-induced inhibition of cell proliferation, the effect of OTX-008 on cell cycle in SQ20B cells was examined (FIG. 5B). […] Activation of cdc2 (cdk1) by de-phosphorylation of tyrosine 15 is required for G2/M transition. […]"}, "SQ20B cells": {"system": "SQ20B cells", "experiment": "Cell cycle analysis by flow cytometry", "assay_type": "cell-based, human", "settings": "72 h exposure", "method": "Cell cycle analysis was assessed by flow cytometry. In brief, cells were seeded onto […] flasks and treated with various concentrations of OTX-008. After 72 h exposure, adherent and non-adherent cells were recovered, washed with PBS, fixed in 70% ethanol and stored at −20° C. until use. Cells were rehydrated in PBS, incubated for 30 minutes at 37° C. with 200 μg/ml RNAse A, and for 20 minutes at +4° C. with 40 μg/ml propidium iodide in the dark. The cell cycle distribution was determined with a flow cytometer (FACSCalibur and Cell Quest Pro software, BD Biosciences, Le-Pont-de-Claix, France).\nTo study the mechanism of OTX-008-induced inhibition of cell proliferation, the effect of OTX-008 on cell cycle in SQ20B cells was examined (FIG. 5B). […] Activation of cdc2 (cdk1) by de-phosphorylation of tyrosine 15 is required for G2/M transition. […] Thus, the level of phosphorylated cdc2 on tyrosine 15 and wee1 on serine 642 in SQ20B cell line were exposed to 3 μM OTX-008 for 72 h. […] In order to determine the potential relationship between the inhibition of MAPK signaling pathways and the effects on cell cycle by OTX-008, SQ20B cells were pretreated for 2 h with the ERK1/2 inhibitor UO126 followed by the OTX-008 addition for 72 hours."}}}
{"molecule": "CN(C)CCNC(=O)COc1c2cccc1Cc1cccc(c1OCC(=O)NCCN(C)C)Cc1cccc(c1OCC(=O)NCCN(C)C)Cc1cccc(c1OCC(=O)NCCN(C)C)C2", "note": "[OTX-008]", "values": [{"measurement": "chk1, chk2, and cdc25C phosphorylation levels", "setting": "chk1, chk2, and cdc25C", "result": "Mild to no changes"}, {"measurement": "galectin-1 localization", "setting": "galectin-1; 3 μM OTX-008", "result": "translocates from the cytoplasm to the nucleus"}, {"measurement": "galectin-1 expression in the cytoplasm (immunofluorescence)", "setting": "galectin-1; 3 μM OTX-008, 24 and 48 h", "result": "decrease galectin-1 expression"}, {"measurement": "cdc2 activity (phosphorylation on tyrosine 15)", "setting": "cdc2 (tyrosine 15)", "result": "inactivated cdc2"}, {"measurement": "cell cycle distribution", "setting": "SQ20B cells", "result": "dose-dependent accumulation of cells in G2/M phase"}]}
